Reference: PubChem BioAssay (NCI)
Several values for one entry are separate records, joined by “and”; a condition that tells them apart may be missing. Identical values can stand only once.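 48-hour exposure; five concentrations; linearly interpolated endpoints. GI50: concentration for 50% inhibition of growth. TGI: total growth inhibition.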

How the values were obtained:
Assay in all cases: NCI-60 cell line screen, 48 h
A549 NSCLC = system: A549 NSCLC
HCT-116 colon = system: HCT-116 colon
M14 melanoma = system: M14 melanoma
MDA-N = system: MDA-N
SF-295 CNS = system: SF-295 CNS
SK-MEL-28 melanoma = system: SK-MEL-28 melanoma
SN12C renal = system: SN12C renal
SNB-75 CNS = system: SNB-75 CNS
SR leukemia = system: SR leukemia
SW-620 colon = system: SW-620 colon

Compound | TGI (A549 NSCLC) [µM] | TGI (HCT-116 colon) [µM] | TGI (M14 melanoma) [µM] | TGI (MDA-N) [µM] | TGI (SF-295 CNS) [µM] | TGI (SK-MEL-28 melanoma) [µM] | TGI (SN12C renal) [µM] | TGI (SNB-75 CNS) [µM] | TGI (SR leukemia) | TGI (SW-620 colon) [µM] | GI50 (SR leukemia)
C=C1CC(COc2ccc3c(C)c(C)c(=O)oc3c2C)(c2ccccc2)OC1=O (stereo not drawn) | 26.7 | 2.77 | 4.23 | 4.4 | 19.2 | 5.44 | 11.3 | 10.4 | > 100 µM | 3.5 | –
N#Cc1nc(C2CCC(=O)O2)oc1N (stereo not drawn) | – | > 100 | > 100 | > 100 | > 100 | > 100 | > 100 | > 100 | > 100 µM | > 100 | –
O=C(OC12CC3CC(CC(C3)C1)C2)c1ccc(NCc2cc(O)ccc2O)cc1 | 16.5 | 5.28 | 5.18 | 6.56 | 7.5 | 1.62 | 9.22 | 2.68 | 0.907 µM | 4.92 | –
O=C(O)C1=NN(c2ccc(S(=O)(=O)O)cc2)C2(C1)C(Cl)C(=O)N2c1nc2ccccc2s1 (stereo not drawn) | 35.2 | 33.1 | 30.3 | 53.1 | 32.3 | 46.3 | 43.7 | 30.7 | 24.5 µM | 19.8 | –
O=C(Sc1c(-c2ccccc2)c(=O)n(-c2ccccc2)c(=S)n1-c1ccccc1)c1ccco1 | > 100 | > 100 | > 100 | > 100 | > 100 | > 100 | > 100 | > 100 | > 78.9 µM | > 100 | –
CC(=O)N(C)c1ccc(Nc2ccnc3ccc4nn(C)nc4c23)cc1 | 78 | 53.1 | > 100 | > 100 | 59 | 73.1 | > 100 | > 100 | 77.1 µM | > 100 | –
CCCCN1C(=O)CC2[C@@H]3CCc4cc(OC)ccc4C3CC[C@]2(C)C1=O (stereo partly drawn) | > 10 | > 10 | > 10 | > 10 | > 10 | > 10 | > 10 | > 10 | > 10 µM | > 10 | –
Nc1nncc2[nH]cnc12 | > 100 | > 100 | > 100 | > 100 | > 100 | > 100 | > 100 | > 100 | > 100 µM | > 100 | –
Cc1cn(CCCCCOC(=O)NC(CCCNC(N)=O)C(=O)O)c(=O)[nH]c1=O (stereo not drawn) | > 100 | > 100 | > 100 | > 100 | > 100 | > 100 | > 100 | > 100 | > 100 µM | > 100 | –
NC(N)=NS(=O)(=O)c1ccc(NC(=O)c2cccc3c(NNc4ccc(S(N)(=O)=O)cc4)c4ccccc4nc23)cc1 | > 100 | > 100 | > 100 | > 100 | > 100 | > 100 | > 100 | > 100 | 82.6 µM | > 100 | –
C[n+]1c(-c2ccc(NC(=O)c3ccc(C(=O)Nc4ccc(-c5cn6ccccc6[n+]5C)cc4)cc3)cc2)cn2ccccc21 | > 100 | > 100 | > 100 | > 100 | > 100 | > 100 | > 100 | > 100 | > 100 µM | > 100 | –
NCCCCNCCCNC(=O)CNC(=O)CC(O)C(N)CCCC(NC(=O)C(CN)NC(=O)C(O)CNC(=O)CC(N)c1ccc(O)cc1)C(=O)O (stereo not drawn) | > 10 | > 10 | > 10 | > 10 | > 10 | > 10 | > 10 | > 10 | > 10 µM | – | –
COc1ccc2c(c1)-c1c(c3cc(OC)ccc3n1CCN(C)C)CC2 | 29.9 | 24.4 | 28.5 | 27.9 | 34.3 | 30.4 | 26 | 43.4 | 25.1 µM | 31.1 | –
COC(=O)C1=C(C(=O)OC)SC(=C2SC3=C(SC(=C4SCCS4)S3)S2)S1 | > 100 | > 100 | > 100 | > 100 | > 100 | > 100 | > 100 | 6.86 | > 100 µM | > 100 | –
COc1cc2[nH]c(=O)c3cc(-c4ccccc4)cc4c(Cl)nc(c1OC)c2c43 | > 71.7 | 12.9 | > 62.9 | 13.5 | > 100 | > 100 | > 100 | > 60.3 | > 100 µM | > 66.1 | –
Cc1nnc2n1-c1ccccc1N(Cc1ccccc1)CC2 | > 100 | > 100 | > 100 | > 100 | > 100 | > 100 | > 100 | > 100 | > 100 µM | > 100 | –
CCOC(=O)/C=C(/C=C\COC1CCCCO1)c1ccccc1 (stereo not drawn) | > 100 | 29.5 | > 100 | > 100 | 76.1 | 85.7 | 49.5 | 69.7 | 53.8 µM | 80.4 | –
C=C(C)[C@H]1CC(=O)/C(C)=C\CC/C(C)=C/CC[C@@]2(C)O[C@@H]2C1 | 34.5 | 32.8 | > 100 | 94.4 | 89.8 | 64.6 | 42.7 | > 100 | > 100 µM | > 100 | –
Cc1cc(S(=O)(=O)Nc2n[nH]c(Nc3ccccc3)n2)c(SCC(=O)O)cc1Cl | > 100 | > 100 | > 100 | > 100 | > 100 | > 100 | > 100 | > 100 | > 100 µM | > 100 | –

Compound | TGI (A549 NSCLC) [µM] | TGI (HCT-116 colon) [µM] | TGI (M14 melanoma) [µM] | TGI (MDA-N) [µM] | TGI (SF-295 CNS) [µM] | TGI (SK-MEL-28 melanoma) [µM] | TGI (SN12C renal) [µM] | TGI (SNB-75 CNS) [µM] | TGI (SR leukemia) | TGI (SW-620 colon) [µM] | GI50 (SR leukemia)
CCC(=O)Nc1ccc(NS(=O)(=O)c2ccc(Cl)cc2)cc1 | > 100 | > 100 | > 100 | > 100 | > 100 | > 100 | > 100 | > 100 | > 100 µM | > 100 | –
O=CN1CCN(C(=O)c2ccco2)C1=S | 26.9 | 24.5 | 24.1 | 24.7 | 51.1 | > 57.6 | 15.8 | 34.8 | 9.25 µM | > 46.5 | –
COc1cc(OC)cc(Oc2nc3cc(F)c(F)cc3nc2-c2ccccc2)c1 | > 100 | > 100 | > 100 | > 100 | > 100 | > 100 | > 100 | > 100 | > 100 µM | > 100 | –
CCOc1ccc(N=Nc2ccc3cc(/C(C)=N/NC(=O)/C(C#N)=C\c4ccc(N(CCC#N)CCC#N)cc4)c(=O)oc3c2)cc1 | > 10 | > 10 | > 10 | > 10 | > 10 | > 10 | > 10 | > 10 | > 10 µM | > 10 | –
Cc1ccc(S(=O)(=O)c2c(O)c3ccc(O)c(C)c3oc2=O)cc1 | > 100 | > 100 | > 100 | > 100 | > 100 | > 100 | > 100 | > 100 | > 100 µM | > 100 | –
CCOc1snc(C(Cl)(Cl)Cl)c1Cl | 95.4 | 89.2 | > 100 | > 100 | 74.7 | 94 | 89.7 | 54.9 | 35.6 µM | > 100 | –
O=C(/C=C\Nc1ccccc1O)C(F)(F)F | > 100 | > 100 | > 100 | > 100 | > 100 | > 100 | > 100 | > 100 | > 100 µM | > 100 | –
O=[N+]([O-])/C(Cl)=C(/C(Cl)=C(Cl)Cl)N1CCCCC1 | 28.5 | 18.9 | 23.3 | 23.9 | 54.3 | 30.3 | 27.4 | 56 | 7.5 µM | – | –
CC(=O)OCC(=O)O[C@@H]1[C@H]2[C@@H](OC(=O)c3ccccc3)[C@@H](C)C[C@]2(O)[C@H](OC(C)=O)[C@@]2(C)C[C@]1(OC(C)=O)C[C@H]1C(=O)C(C)(C)[C@@H](OC(C)=O)[C@@H]12 | > 25 | > 25 | > 25 | > 25 | > 25 | > 25 | > 25 | > 25 | > 25 µM | > 25 | –
N#C/C(=C\c1cccc(Br)c1)c1nc2ccccc2c(=O)[nH]1 | > 100 | > 100 | > 100 | > 100 | > 100 | > 100 | > 100 | 76 | > 100 µM | > 100 | –
COc1ccc(C2Oc3c(OC)cc(CCCO)cc3C2CO)cc1OC (stereo not drawn) | > 100 | > 100 | > 100 | > 100 | > 100 | > 100 | > 100 | > 100 | 55.5 µM and > 100 µM | > 100 | 13.4 µM and > 100 µM
S=c1[nH]nc(Cn2c3ccc(Br)cc3c3nc4ccccc4nc32)n1C1CCCCC1 | > 64.1 | 40.2 | > 100 | > 93.7 | 49.5 | > 56.8 | > 56.6 | > 100 | 60.6 µM | > 100 | –
Cc1nc(SCC(N)=O)c2sc(=S)n(-c3ccccc3)c2n1 | > 10 | > 10 | > 10 | > 10 | > 10 | > 10 | > 10 | > 10 | > 10 µM | > 10 | –
NCCN(CCN(C(=O)Nc1ccccc1)c1ccccc1)C(=O)Nc1ccccc1 | > 100 | 33.5 | 53.4 | 47.8 | 36.4 | 35.9 | 69.7 | 45.4 | > 100 µM | 48.3 | –
O=C1CC(c2ccccc2Cl)C2(C(=O)NC(=O)NC2=O)C(c2ccccc2Cl)C1 (stereo not drawn) | > 100 | > 100 | > 100 | > 100 | > 100 | > 100 | > 100 | > 100 | > 100 µM | > 100 | –
CC1(C)OC[C@@H](C[C@H](O)COCc2ccccc2)O1 | > 100 | > 100 | > 100 | > 100 | > 100 | > 100 | > 100 | > 100 | > 100 µM | > 100 | –
CCCCCCCCCCCCNC(=O)CCC(NC(=O)c1ccc(N(C)Cc2cnc3nc(N)nc(N)c3n2)cc1)C(=O)NCCCCCCCCCCCC (stereo not drawn) | > 100 | > 100 | > 100 | > 100 | > 100 | > 100 | > 100 | 20.8 | 32.3 µM | > 100 | –
Clc1cc(C(c2cc(Cl)sc2Cl)c2cc(Cl)sc2Cl)c(Cl)s1 | > 100 | > 100 | > 100 | > 100 | > 100 | > 100 | > 100 | > 100 | > 100 µM | > 100 | –
